Measured values published in article PMC9841527 (Journal of Medicinal Chemistry, 2022).

Assays:
CamA = target: T1, CamA (Clostridioides difficile, UniProt Q183J3); assay: Isothermal titration calorimetry; format: binding
T1 sequence (Q183J3 1-577): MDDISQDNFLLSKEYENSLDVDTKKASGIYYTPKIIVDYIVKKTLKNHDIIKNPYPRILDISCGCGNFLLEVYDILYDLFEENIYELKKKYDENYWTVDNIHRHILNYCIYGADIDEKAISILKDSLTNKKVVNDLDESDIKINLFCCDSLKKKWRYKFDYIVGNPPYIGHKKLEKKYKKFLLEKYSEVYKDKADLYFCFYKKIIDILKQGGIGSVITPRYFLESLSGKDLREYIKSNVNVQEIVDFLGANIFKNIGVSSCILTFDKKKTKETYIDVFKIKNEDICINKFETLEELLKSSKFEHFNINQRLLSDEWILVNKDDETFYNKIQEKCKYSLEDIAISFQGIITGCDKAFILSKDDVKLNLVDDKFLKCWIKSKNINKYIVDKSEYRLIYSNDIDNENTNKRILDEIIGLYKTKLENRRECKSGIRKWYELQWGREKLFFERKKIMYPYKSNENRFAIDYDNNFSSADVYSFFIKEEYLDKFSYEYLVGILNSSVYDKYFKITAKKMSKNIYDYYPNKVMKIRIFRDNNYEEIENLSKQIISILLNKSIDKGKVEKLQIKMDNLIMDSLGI

CcrM = CcrM (Caulobacter vibrioides, UniProt P0CAW2); format: biochemical, Caulobacter crescentus
Dam = target: T2, Dam (Escherichia coli, UniProt P0AEE8); format: biochemical
T2 sequence (P0AEE8 1-278): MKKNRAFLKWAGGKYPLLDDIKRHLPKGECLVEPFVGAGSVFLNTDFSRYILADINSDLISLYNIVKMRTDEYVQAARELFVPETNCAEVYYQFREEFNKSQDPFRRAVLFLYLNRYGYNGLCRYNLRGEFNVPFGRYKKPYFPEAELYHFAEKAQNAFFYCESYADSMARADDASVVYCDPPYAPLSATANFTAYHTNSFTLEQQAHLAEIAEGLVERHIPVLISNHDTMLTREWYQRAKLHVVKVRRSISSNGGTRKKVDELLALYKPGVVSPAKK

DNMT1 = DNMT1 (Homo sapiens, UniProt P26358); assay: Selectivity assay, DNMT1; format: biochemical; settings: [I] = 10 μM, [SAM] = 5.5 μM, 37 °C
MettL5-Trm112 = MettL5-Trm112 (Homo sapiens, UniProt Q9NRN9); format: biochemical
MettL16 = target: T3, MettL16 (Homo sapiens, UniProt Q86W50); assay: Selectivity assay, MettL16; format: biochemical; settings: [I] = 10 μM, [SAM] = 160 μM or 30 μM
T3 sequence (Q86W50 1-562): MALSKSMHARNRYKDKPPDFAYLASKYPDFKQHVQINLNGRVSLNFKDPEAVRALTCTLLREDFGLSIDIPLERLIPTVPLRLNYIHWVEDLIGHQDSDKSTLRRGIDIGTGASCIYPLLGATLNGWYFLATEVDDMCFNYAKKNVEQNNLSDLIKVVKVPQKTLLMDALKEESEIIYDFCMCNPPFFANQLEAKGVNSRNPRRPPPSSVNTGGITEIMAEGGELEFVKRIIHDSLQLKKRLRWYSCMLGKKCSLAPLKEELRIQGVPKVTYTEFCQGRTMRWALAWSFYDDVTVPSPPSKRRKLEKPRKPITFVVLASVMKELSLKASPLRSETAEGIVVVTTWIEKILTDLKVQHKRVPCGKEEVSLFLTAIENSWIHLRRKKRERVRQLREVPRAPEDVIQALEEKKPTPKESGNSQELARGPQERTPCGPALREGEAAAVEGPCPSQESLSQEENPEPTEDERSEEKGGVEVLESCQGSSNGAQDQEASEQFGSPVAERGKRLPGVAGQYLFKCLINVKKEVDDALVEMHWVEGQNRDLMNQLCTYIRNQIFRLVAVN

EZH2 complex = EZH2 complex (Homo sapiens, UniProt Q15910); assay: Selectivity assay, EZH2 complex; format: biochemical; settings: compound 10 μM, 3H-SAM 1 μM
G9a = target: T4, G9a (Homo sapiens, UniProt Q96KQ7); assay: Selectivity assay, G9a; format: biochemical; settings: compound 10 μM, 3H-SAM 1 μM
T4 sequence (Q96KQ7 1-1210): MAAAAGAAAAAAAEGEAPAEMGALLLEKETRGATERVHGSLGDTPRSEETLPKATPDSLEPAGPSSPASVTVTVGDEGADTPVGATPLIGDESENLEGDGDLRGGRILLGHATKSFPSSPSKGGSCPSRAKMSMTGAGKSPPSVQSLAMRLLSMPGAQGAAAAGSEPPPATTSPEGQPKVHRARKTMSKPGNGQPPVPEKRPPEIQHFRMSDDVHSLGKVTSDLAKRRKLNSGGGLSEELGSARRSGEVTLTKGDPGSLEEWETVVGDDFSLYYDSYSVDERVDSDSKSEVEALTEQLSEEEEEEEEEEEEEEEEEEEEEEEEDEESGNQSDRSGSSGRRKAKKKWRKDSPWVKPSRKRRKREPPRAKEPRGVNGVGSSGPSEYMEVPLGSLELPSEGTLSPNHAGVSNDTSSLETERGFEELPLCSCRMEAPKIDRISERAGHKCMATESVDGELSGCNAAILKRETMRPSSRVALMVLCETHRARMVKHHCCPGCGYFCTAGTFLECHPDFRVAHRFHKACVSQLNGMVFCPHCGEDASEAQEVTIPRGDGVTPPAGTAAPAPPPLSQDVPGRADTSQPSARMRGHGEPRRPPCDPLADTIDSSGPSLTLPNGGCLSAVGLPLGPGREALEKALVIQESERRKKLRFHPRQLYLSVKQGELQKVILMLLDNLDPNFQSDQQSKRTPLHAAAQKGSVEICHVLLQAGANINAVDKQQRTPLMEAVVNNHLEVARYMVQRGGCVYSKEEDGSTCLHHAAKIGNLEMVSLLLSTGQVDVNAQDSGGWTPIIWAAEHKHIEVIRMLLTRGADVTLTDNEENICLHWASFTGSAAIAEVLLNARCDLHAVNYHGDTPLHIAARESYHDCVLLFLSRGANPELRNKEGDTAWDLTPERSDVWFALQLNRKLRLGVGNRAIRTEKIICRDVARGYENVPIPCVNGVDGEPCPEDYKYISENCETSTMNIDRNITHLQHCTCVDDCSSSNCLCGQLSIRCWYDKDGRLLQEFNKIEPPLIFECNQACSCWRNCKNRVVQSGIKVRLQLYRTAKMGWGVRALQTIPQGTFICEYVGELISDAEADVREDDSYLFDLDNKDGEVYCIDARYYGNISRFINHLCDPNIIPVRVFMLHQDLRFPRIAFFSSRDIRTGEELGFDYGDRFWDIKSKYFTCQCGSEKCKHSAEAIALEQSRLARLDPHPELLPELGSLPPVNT

Sequence of CcrM (P0CAW2 whole entry): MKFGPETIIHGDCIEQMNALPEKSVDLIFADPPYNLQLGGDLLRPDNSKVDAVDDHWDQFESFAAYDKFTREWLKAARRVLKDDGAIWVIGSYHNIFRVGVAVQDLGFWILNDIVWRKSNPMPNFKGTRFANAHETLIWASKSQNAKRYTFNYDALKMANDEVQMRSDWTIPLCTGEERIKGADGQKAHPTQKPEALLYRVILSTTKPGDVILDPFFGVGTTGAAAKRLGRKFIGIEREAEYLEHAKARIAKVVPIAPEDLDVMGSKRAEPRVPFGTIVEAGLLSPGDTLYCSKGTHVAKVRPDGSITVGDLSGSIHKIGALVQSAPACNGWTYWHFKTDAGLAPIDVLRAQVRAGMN
Sequence of EZH2 complex (Q15910 whole entry): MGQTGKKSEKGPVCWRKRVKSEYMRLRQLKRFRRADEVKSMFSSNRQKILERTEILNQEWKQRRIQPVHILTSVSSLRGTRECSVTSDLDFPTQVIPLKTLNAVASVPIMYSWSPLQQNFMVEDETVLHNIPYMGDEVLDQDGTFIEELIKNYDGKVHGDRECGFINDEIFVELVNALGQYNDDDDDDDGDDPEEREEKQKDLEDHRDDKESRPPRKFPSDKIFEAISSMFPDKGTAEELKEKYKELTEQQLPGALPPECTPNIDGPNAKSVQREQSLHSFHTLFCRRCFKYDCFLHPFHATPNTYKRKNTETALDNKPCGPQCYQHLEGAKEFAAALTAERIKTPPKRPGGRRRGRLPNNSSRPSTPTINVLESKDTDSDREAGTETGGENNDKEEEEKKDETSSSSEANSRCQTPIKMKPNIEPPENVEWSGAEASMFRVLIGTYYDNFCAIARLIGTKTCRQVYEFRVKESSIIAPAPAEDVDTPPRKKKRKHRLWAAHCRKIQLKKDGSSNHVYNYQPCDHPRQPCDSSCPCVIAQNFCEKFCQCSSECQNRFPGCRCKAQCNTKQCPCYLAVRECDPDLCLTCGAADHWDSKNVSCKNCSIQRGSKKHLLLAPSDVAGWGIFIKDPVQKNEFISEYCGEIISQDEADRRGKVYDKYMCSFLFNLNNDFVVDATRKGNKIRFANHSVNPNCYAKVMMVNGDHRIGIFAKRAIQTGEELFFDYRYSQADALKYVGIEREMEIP
Sequence of EZH2 complex (O75530 whole entry partner): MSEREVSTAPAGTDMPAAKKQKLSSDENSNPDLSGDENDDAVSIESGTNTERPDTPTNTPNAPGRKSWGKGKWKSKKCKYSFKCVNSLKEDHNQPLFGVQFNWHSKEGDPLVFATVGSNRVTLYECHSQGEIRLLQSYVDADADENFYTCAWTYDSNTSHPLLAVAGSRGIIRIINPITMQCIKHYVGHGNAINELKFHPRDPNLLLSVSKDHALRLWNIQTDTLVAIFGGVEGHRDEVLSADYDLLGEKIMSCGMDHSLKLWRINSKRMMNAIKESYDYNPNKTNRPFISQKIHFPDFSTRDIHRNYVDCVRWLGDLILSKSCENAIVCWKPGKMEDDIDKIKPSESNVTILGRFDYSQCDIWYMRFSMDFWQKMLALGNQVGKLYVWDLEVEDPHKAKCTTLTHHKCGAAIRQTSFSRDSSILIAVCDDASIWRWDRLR
Sequence of EZH2 complex (Q15022 whole entry partner): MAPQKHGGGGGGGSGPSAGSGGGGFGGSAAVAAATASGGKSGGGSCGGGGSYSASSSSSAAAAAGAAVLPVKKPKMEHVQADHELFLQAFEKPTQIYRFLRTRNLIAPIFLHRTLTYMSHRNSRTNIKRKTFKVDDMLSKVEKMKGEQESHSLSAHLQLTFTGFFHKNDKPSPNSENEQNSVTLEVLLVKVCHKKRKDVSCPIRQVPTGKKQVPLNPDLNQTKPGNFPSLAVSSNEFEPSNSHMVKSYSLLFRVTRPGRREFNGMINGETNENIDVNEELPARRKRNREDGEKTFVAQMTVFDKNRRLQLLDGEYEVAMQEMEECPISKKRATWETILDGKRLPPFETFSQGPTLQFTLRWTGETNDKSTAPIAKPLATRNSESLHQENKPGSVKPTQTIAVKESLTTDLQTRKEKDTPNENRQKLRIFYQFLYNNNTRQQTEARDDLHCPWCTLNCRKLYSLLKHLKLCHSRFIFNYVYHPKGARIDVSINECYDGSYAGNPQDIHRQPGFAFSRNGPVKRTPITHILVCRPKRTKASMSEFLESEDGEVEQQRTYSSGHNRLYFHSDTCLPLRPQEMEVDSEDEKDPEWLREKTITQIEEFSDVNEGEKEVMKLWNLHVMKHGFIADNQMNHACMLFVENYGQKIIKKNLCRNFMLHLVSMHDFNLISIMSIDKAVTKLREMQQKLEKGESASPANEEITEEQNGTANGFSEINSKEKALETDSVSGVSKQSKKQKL
Sequence of EZH2 complex (Q09028 whole entry partner): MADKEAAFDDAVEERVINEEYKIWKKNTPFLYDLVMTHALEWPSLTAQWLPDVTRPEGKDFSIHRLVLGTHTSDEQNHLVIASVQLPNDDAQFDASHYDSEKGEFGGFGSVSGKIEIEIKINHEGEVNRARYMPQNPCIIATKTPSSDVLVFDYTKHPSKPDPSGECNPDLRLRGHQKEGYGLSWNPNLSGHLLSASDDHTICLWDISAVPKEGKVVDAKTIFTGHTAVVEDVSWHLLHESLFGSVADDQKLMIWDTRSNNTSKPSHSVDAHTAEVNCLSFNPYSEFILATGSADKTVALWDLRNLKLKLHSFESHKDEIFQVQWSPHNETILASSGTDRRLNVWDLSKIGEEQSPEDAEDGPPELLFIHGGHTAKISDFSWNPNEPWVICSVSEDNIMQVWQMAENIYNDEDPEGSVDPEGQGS
Sequence of EZH2 complex (Q6ZN18 whole entry partner): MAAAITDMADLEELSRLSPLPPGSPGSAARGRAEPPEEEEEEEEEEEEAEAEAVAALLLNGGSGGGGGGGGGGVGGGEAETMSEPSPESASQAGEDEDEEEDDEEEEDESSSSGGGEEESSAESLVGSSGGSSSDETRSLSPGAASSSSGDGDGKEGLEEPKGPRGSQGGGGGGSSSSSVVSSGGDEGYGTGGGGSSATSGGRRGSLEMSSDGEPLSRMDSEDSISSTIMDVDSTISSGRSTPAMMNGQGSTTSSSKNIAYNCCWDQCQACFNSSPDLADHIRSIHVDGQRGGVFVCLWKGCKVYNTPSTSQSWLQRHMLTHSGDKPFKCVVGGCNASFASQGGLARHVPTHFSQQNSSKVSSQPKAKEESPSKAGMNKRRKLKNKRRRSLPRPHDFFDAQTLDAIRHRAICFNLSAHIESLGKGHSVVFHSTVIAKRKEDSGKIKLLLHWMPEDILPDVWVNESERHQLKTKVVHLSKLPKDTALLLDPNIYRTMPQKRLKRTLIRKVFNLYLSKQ
Sequence of DNMT1 (P26358 351-1600): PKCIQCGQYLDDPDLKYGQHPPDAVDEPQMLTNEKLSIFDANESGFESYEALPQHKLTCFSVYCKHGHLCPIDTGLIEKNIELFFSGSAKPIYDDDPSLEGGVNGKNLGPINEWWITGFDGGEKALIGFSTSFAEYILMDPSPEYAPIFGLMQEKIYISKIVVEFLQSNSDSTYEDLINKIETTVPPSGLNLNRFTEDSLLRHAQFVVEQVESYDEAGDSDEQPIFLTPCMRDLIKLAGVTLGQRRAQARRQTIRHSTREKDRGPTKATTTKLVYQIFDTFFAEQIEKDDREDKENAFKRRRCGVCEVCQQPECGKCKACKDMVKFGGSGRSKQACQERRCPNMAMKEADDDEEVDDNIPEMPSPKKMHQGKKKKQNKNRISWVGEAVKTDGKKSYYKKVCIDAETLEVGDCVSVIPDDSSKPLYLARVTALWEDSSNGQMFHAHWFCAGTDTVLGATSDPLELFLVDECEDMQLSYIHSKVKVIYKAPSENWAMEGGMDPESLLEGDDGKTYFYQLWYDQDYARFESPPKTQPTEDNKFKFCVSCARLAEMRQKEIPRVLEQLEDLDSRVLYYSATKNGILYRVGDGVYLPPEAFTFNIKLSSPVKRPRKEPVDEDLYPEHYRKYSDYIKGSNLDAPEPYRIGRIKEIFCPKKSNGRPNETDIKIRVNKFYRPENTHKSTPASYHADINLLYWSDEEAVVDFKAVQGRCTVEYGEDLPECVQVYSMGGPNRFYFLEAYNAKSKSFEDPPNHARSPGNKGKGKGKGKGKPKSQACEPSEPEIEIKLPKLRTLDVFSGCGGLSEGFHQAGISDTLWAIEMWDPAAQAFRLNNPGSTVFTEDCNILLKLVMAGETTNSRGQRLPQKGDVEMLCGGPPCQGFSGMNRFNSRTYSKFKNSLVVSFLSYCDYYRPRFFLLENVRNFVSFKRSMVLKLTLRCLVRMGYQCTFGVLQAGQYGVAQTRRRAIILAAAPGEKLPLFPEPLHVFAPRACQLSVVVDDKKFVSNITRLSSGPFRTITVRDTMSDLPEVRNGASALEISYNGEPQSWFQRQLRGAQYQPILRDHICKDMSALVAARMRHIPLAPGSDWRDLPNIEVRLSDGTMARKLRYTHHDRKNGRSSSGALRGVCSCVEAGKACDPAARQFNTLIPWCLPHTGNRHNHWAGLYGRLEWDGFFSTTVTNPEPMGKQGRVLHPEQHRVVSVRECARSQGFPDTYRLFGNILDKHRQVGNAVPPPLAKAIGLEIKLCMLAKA
Sequence of MettL5-Trm112 (Q9NRN9 whole entry): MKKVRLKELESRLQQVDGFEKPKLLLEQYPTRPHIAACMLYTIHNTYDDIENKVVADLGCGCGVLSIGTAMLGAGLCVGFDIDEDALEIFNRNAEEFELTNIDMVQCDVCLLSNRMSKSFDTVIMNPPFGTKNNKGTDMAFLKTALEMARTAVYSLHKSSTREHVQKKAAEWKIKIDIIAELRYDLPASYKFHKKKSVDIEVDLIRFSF
Sequence of MettL5-Trm112 (Q9UI30 whole entry partner): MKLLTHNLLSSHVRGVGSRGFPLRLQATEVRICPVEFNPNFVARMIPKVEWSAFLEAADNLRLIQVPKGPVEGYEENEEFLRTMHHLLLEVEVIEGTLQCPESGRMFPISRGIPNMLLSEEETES

| SMILES | Kd (CamA; KD ± SD, ITC, 25 °C) | KD improved, fold (CamA; from that of compound 37) | inhibition of CcrM (CcrM) | inhibition of Dam (Dam) | inhibition of DNMT1 (DNMT1) | inhibition of MettL5-Trm112 (MettL5-Trm112) | inhibition of MettL16 (MettL16) | inhibition of EZH2 complex (EZH2 complex) | inhibition of G9a (G9a) | lower KD value, fold (CamA; compared to compound 15) |
| --- | --- | --- | --- | --- | --- | --- | --- | --- | --- | --- |
| CC(C)(C)OC(=O)N1CCC(CCCNc2ncnc3c2ncn3[C@@H]2O[C@H](CO)[C@@H](O)[C@H]2O)CC1 [Compound 39, tert-Butyl-4-(3-((9-((2R,3R,4S,5R)-3,4-dihydroxy-5-(hydroxymethyl)tetrahydrofuran-2-yl)-9H-purin-6-yl)amino)propyl)piperidine-1-carboxylate] | ~200 nM | ~8 × | none of them showed any significant inhibition | none of them showed any significant inhibition | none of them showed any significant inhibition | none of them showed any significant inhibition | none of them showed any significant inhibition | none of them showed any significant inhibition | none of them showed any significant inhibition |  |
| OC[C@H]1O[C@@H](n2cnc3c(NCCCc4ccc(O)cc4)ncnc32)[C@H](O)[C@@H]1O [Compound 16, (2R,3S,4R,5R)-2-(Hydroxymethyl)-5-(6-((3-(4-hydroxyphenyl)propyl)amino)-9H-purin-9-yl)tetrahydrofuran-3,4-diol] |  |  | none of them showed any significant inhibition | none of them showed any significant inhibition | none of them showed any significant inhibition | none of them showed any significant inhibition | none of them showed any significant inhibition | none of them showed any significant inhibition | none of them showed any significant inhibition | ~6.5 X |
